# From patent publication US10118930B2, “Piperidinylpyrazolopyrimidinones and their use” (BAYER PHARMA AKTIENGESELLSCHAFT, priority 2015, dated 2018)
# Where a name gives a salt, the structure may show the parent alone.
# Tested on: clot lysis (fibrinolysis) in diluted human citrated plasma, tPA-induced
# Assay: Plasma-based clot lysis assay (5%)
# Type: biochemical
# Conditions: human citrated platelet-poor plasma 5%, fibrinogen 3 μM, CaCl2 10 mM, tPA 0.2 nM, 37° C., OD at 405 nm
# Description: B-2. Plasma-based Clot Lysis Assay (5%)
# The clot-lysis test system configures the kinetics of clot formation and degradation in vitro and allows quantifying modulation of the process by selected test compounds.
# The test compounds were dissolved in 1% acetic acid and further complemented with an equal volume of DMSO. The resulting stock solutions were serially diluted in 0.5% acetic acid/50% DMSO. 1 μL aliquots of these solutions were placed into 384 well microplates (Greiner, black, transparent bottom), followed by 30 μL of diluted human citrated plasma (platelet-poor, final concentration: 5%; supplemented with fibrinogen, final concentration: 3 μM; dilution buffer: 20 mM HEPES, 150 mM NaCl, 0.01% Brij (pH 7)). The reactions were started by addition of 20 μL of CaCl2 (final concentration: 10 mM), and tPA (tissue plasminogen activator, final concentration: 0.2 nM) in dilution buffer, followed by an additional volume of 20 μL dilution buffer for improved mixing. The reactions were incubated at 37° C. […] IC50 values were determined by comparing the resulting time courses with the time course of a blank control reaction.
row,SMILES,IC50
1,"CC(C)(c1nnc(-c2cnn3c(C4CCNCC4)cc(=O)[nH]c23)o1)n1cncn1 [Example 275, 7-(piperidin-4-yl)-3-{5-[2-(1H-1,2,4-triazol-1-yl)propan-2-yl]-1,3,4-oxadiazol-2-yl}pyrazolo[1,5-a]pyrimidin-5(4H)-one hydrochloride]",20 nM
2,"Cc1nn2c(C3CCNCC3)cc(=O)[nH]c2c1-c1nc(-c2ccccc2F)no1 [Example 438, 3-[3-(2-fluorophenyl)-1,2,4-oxadiazol-5-yl]-2-methyl-7-(piperidin-4-yl)pyrazolo[1,5-a]pyrimidin-5(4H)-one hydrochloride]",12 nM
3,"C[C@@H](c1ccccc1)N(C)C(=O)c1cnn2c(C3CCNCC3)cc(=O)[nH]c12 [Example 360, N-methyl-5-oxo-N-[(1S)-1-phenylethyl]-7-(piperidin-4-yl)-4,5-dihydropyrazolo[1,5-a]pyrimidine-3-carboxamide hydrochloride]",52 nM
4,"O=c1cc(C2CCNCC2)n2ncc(-c3nc(CCCC(F)(F)F)no3)c2[nH]1 [Example 192, 7-(piperidin-4-yl)-3-[3-(4,4,4-trifluorobutyl)-1,2,4-oxadiazol-5-yl]pyrazolo[1,5-a]pyrimidin-5(4H)-one hydrochloride]",34 nM
5,"O=c1cc(C2CCNCC2)n2ncc(-c3cccc(-c4ccc(C(F)(F)F)cc4)c3)c2[nH]1 [Example 162, 7-(piperidin-4-yl)-3-[4′-(trifluoromethyl)biphenyl-3-yl]pyrazolo[1,5-a]pyrimidin-5(4H)-one hydrochloride]",140 nM
6,"O=c1cc(C2CCNCC2)n2ncc(-c3ccccc3C(F)(F)F)c2[nH]1 [Example 63, 7-(Piperidin-4-yl)-3-[2-(trifluoromethyl)phenyl]pyrazolo[1,5-a]pyrimidin-5(4H)-one hydrochloride]",40 nM
7,"NCc1noc(-c2cnn3c(C4CCNCC4)cc(=O)[nH]c23)n1 [Example 212, 3-[3-(aminomethyl)-1,2,4-oxadiazol-5-yl]-7-(piperidin-4-yl)pyrazolo[1,5-a]pyrimidin-5 (4H)-one hydrochloride]",58 nM
8,"O=c1cc(C2CCNCC2)n2ncc(-c3noc(-c4cccc(Cl)c4F)n3)c2[nH]1 [Example 218, 3-[5-(3-chloro-2-fluorophenyl)-1,2,4-oxadiazol-3-yl]-7-(piperidin-4-yl)pyrazolo[1,5-a]pyrimidin-5(4H)-one hydrochloride]",54 nM
9,"Cc1nn2c(C3CCNCC3)cc(=O)[nH]c2c1-c1nc(Cc2ccc(F)cc2)no1 [Example 299, 3-[3-(4-fluorobenzyl)-1,2,4-oxadiazol-5-yl]-2-methyl-7-(piperidin-4-yl)pyrazolo[1,5-a]pyrimidin-5(4H)-one hydrochloride]",25 nM
10,"Cc1nn2c(C3CCNCC3)cc(=O)[nH]c2c1C(=O)N(C)Cc1ccccc1 [Example 436, N-benzyl-N,2-dimethyl-5-oxo-7-(piperidin-4-yl)-4,5-dihydro-pyrazolo[1,5-a] pyrimidine-3-carboxamide hydrochloride]",39 nM
11,"Cc1nn2c(C3CCNCC3)cc(=O)[nH]c2c1-c1nc(Cc2ccccc2Cl)no1 [Example 439, 3-[3-(2-chlorobenzyl)-1,2,4-oxadiazol-5-yl]-2-methyl-7-(piperidin-4-yl)pyrazolo[1,5-a]pyrimidin-5(4H)-one hydrochloride]",26 nM
12,"O=c1cc(C2CCNCC2)n2ncc(-c3nc(-c4cccc(C(F)(F)F)n4)no3)c2[nH]1 [Example 146, 7-(Piperidin-4-yl)-3-{3-[6-(trifluoromethyl)pyridin-2-yl]-1,2,4-oxadiazol-5-yl}pyrazolo[1,5-a]pyrimidin-5(4H)-one hydrochloride]",35 nM
13,"CCCOC(=O)c1c(C)nn2c(C3CCNCC3)cc(=O)[nH]c12 [Example 365, Propyl 2-methyl-5-oxo-7-(piperidin-4-yl)-4,5-dihydropyrazolo[1,5-a]pyrimidine-3-carboxylate hydrochloride]",38 nM
14,"CN(Cc1ccccn1)C(=O)c1cnn2c(C3CCNCC3)cc(=O)[nH]c12 [Example 361, N-methyl-5-oxo-7-(piperidin-4-yl)-N-(pyridin-2-ylmethyl)-4,5-dihydropyrazolo[1,5-a]pyrimidine-3-carboxamide hydrochloride]",32 nM
15,"Cc1nn2c(C3CCNCC3)cc(=O)[nH]c2c1C(=O)N1CCN2CCCC2C1 (centres unmarked) [Example 411, 3-(hexahydro-pyrrolo[1,2-a]pyrazin-2(1H)-ylcarbonyl)-2-methyl-7-(piperidin-4-yl) pyrazolo[1,5-a] pyrimidin-5(4H)-one hydrochloride]",540 nM
16,"O=c1cc(C2CCNCC2)n2ncc(-c3nnc(-c4ccccc4Cl)o3)c2[nH]1 [Example 290, 3-[5-(2-chlorophenyl)-1,3,4-oxadiazol-2-yl]-7-(piperidin-4-yl)pyrazolo[1,5-a]pyrimidin-5(4H)-one hydrochloride]",26 nM

row,SMILES,IC50
1,"C[C@@H]1CCN(C(=O)c2cnn3c(C4CCNCC4)cc(=O)[nH]c23)C1 [Example 321, 3-{[(3R)-3-methylpyrrolidin-1-yl]carbonyl}-7-(piperidin-4-yl)pyrazolo[1,5-a]pyrimidin-5(4H)-one hydrochloride]",82 nM
2,"O=c1cc(C2CCNCC2)n2nc(-c3ccccc3)c(Br)c2[nH]1 [Example 29, 3-Bromo-2-phenyl-7-(piperidin-4-yl)pyrazolo[1,5-a]pyrimidin-5(4H)-one hydrochloride]",20 nM
3,"CCOC(=O)c1c(-c2ccccc2)nn2c(C3CCNCC3)cc(=O)[nH]c12 [Example 38, Ethyl 5-oxo-2-phenyl-7-(piperidin-4-yl)-4,5-dihydropyrazolo[1,5-a]pyrimidine-3-carboxylate trifluoroacetate]",18 nM
4,"O=c1cc(C2CCNCC2)n2ncc(-c3noc(CC(F)(F)F)n3)c2[nH]1 [Example 388, 7-(Piperidin-4-yl)-3-[5-(2,2,2-trifluoroethyl)-1,2,4-oxadiazol-3-yl]pyrazolo[1,5-a]pyrimidin-5(4H)-one hydrochloride]",30 nM
5,"CCOC(=O)c1c(SC)nn2c(C3CCNCC3)cc(=O)[nH]c12 [Example 455, Ethyl 2-(methylsulfanyl)-5-oxo-7-(piperidin-4-yl)-4,5-dihydropyrazolo[1,5-a]pyrimidine-3-carboxylate hydrochloride]",36 nM
6,"CCNC(=O)c1c(C)nn2c(C3CCNCC3)cc(=O)[nH]c12 [Example 317, N-ethyl-2-methyl-5-oxo-7-(piperidin-4-yl)-4,5-dihydropyrazolo[1,5-a]pyrimidine-3-carboxamide hydrochloride]",29 nM
7,"Cc1nn2c(C3CCNCC3)cc(=O)[nH]c2c1C(=O)NCC(C)C [Example 418, N-isobutyl-2-methyl-5-oxo-7-(piperidin-4-yl)-4,5-dihydro-pyrazolo[1,5-a] pyrimidine-3-carboxamide hydrochloride]",31 nM
8,"COc1ccc(Cc2nc(-c3cnn4c(C5CCNCC5)cc(=O)[nH]c34)no2)cn1 [Example 251, 3-{5-[(6-methoxypyridin-3-yl)methyl]-1,2,4-oxadiazol-3-yl}-7-(piperidin-4-yl)pyrazolo[1,5-a]pyrimidin-5(4H)-one hydrochloride]",31 nM
9,"O=c1cc(C2CCNCC2)n2ncc(-c3ccccc3OC(F)(F)F)c2[nH]1 [Example 71, 7-(Piperidin-4-yl)-3-[2-(trifluoromethoxy)phenyl]pyrazolo[1,5-a]pyrimidin-5(4H)-one hydrochloride]",34 nM
10,"O=c1cc(C2CCNCC2)n2ncc(-c3nnc(Cc4ccccc4Cl)o3)c2[nH]1 [Example 276, 3-[5-(2-chlorobenzyl)-1,3,4-oxadiazol-2-yl]-7-(piperidin-4-yl)pyrazolo[1,5-a]pyrimidin-5(4H)-one hydrochloride]",14 nM
11,"COCCc1noc(-c2c(C)nn3c(C4CCNCC4)cc(=O)[nH]c23)n1 [Example 297, 3-[3-(2-methoxyethyl)-1,2,4-oxadiazol-5-yl]-2-methyl-7-(piperidin-4-yl)pyrazolo[1,5-a]pyrimidin-5(4H)-one hydrochloride]",27 nM
12,"N#Cc1ccc(-c2cnn3c(C4CCNCC4)cc(=O)[nH]c23)cc1 [Example 47, 4-[5-Oxo-7-(piperidin-4-yl)-4,5-dihydropyrazolo[1,5-a]pyrimidin-3-yl]benzonitrile trifluoroacetate]",13 nM
13,"O=c1cc(C2CCNCC2)n2ncc(-c3noc(C4CCCC4)n3)c2[nH]1 [Example 385, 3-(5-Cyclopentyl-1,2,4-oxadiazol-3-yl)-7-(piperidin-4-yl)pyrazolo[1,5-a]pyrimidin-5(4H)-one hydrochloride]",14 nM
14,"O=c1cc(C2CCNCC2)n2ncc(-c3nnc(CC4CCCCC4)o3)c2[nH]1 [Example 182, 3-[5-(cyclohexylmethyl)-1,3,4-oxadiazol-2-yl]-7-(piperidin-4-yl)pyrazolo[1,5-a]pyrimidin-5 (4H)-one hydrochloride]",35 nM
15,"O=c1cc(C2CCNCC2)n2ncc(-c3nc(-c4ccccc4)no3)c2[nH]1 [Example 35, 3-(3-Phenyl-1,2,4-oxadiazol-5-yl)-7-(piperidin-4-yl)pyrazolo[1,5-a]pyrimidin-5(4H)-one hydrochloride]",15 nM
16,"Cc1nn2c(C3CCNCC3)cc(=O)[nH]c2c1-c1nc(C2CCCCC2)no1 [Example 350, 3-(3-cyclohexyl-1,2,4-oxadiazol-5-yl)-2-methyl-7-(piperidin-4-yl)pyrazolo[1,5-a]pyrimidin-5(4H)-one hydrochloride]",20 nM
